Source: paper PMC11881343, “Safety of ilunocitinib tablets (Zenrelia™) after once daily oral administration in dogs” (BMC Veterinary Research, 2025)

Columns and labels:
[1] = tablets, dogs; no reference given; cited from earlier work
healthy Beagle dogs [2] = assay: 6-month safety study: clinical pathology (hematology, coagulation, clinical chemistry, C-reactive protein, urinalysis); assay type: in vivo, dog; conditions: for MCHC, effect compared to 0X / Hb (hemoglobin), effect compared to 0X / Total Protein, effect compared to 0X / MCH, effect compared to 0X / HCT (hematocrit), effect compared to 0X / RBC, effect compared to 0X: all study days; for Hb (hemoglobin), effect compared to 0X / HCT (hematocrit), effect compared to 0X / RBC, effect compared to 0X: pooled sexes; for Total Protein, effect compared to 0X: significant in pooled by sex, males (2X, 3X, 5X) females (3X, 5X); for Albumin, effect compared to 0X: beginning on study day 57; for Eosinophils, effect compared to 0X: study days 29–183, females only; for Fibrinogen, effect compared to 0X: study days 57–183, association with interdigital cysts
Experimental: Blood samples were collected from the jugular vein for the evaluation of hematology, clinical chemistry and coagulation variables at pre-test, and on study days 29, 57, 85, 113, 141, 169 and 183. The complete panel of clinical pathology parameters (hematology, blood chemistry and urinalysis) according to VICH Guideline 43 [10] are listed in Table 1. Urine samples were collected using steel pans placed under the cages for at least 16 h at the same timepoints.
(§1) Endpoints measured multiple times post-treatment that included a pre-treatment measurement (Serum chemistry, C-reactive protein, coagulation, hematology, urinalysis, body weight, body weight changes and food consumption) were analyzed using repeated measures analysis of covariance (RMANCOVA) with ‘treatment’, ‘time’, and ‘sex’; the two-way interactions ‘treatment by time’, ‘treatment by sex’, and ‘sex by time’; the three-way interaction ‘treatment by time by sex’ and a covariate all as fixed effects. The last available pre-treatment value was used as the covariate.
If the interaction terms were significant (P ≤ 0.10 level for two-way interactions and P ≤ 0.05 for the three-way interaction), treated groups were compared to the control either within each sex (treatment by sex significant), within each time point (treatment by time significant) or main effect only (neither treatment by sex nor treatment by time significant).

healthy Beagle dogs [3] = assay: 6-month safety study: organ weights, gross and microscopic examinations; conditions: 5X group
Experimental: At study termination (study day 183), the dogs were humanely euthanized by an intravenous injection of pentobarbital sodium/phenytoin solution under sedation with 6.6–13.2 mg/kg Telazol® (tiletamine/zolazepam) subcutaneous injection. Gross and microscopic examinations were carried out on all animals by a board-certified veterinary pathologist.

[4] = 6-month safety study: body weights and food consumption; assay type: in vivo, dog
Experimental: as §1

[5] = Plasma pharmacokinetics of ilunocitinib (LC-MS/MS, non-compartmental analysis)
Experimental: (§2) Samples were collected at pre-dose and at 0.5, 1, 2, 5, 8 and 24 h post-dosing on the day of the first and last dose (study days 1 and 182) and at pre-dose and at 1 and 24 h post-dosing at study day 85. Blood samples were collected in tubes containing K2 EDTA. Blood was processed to plasma within one hour of collection and plasma samples were stored frozen at -20 °C until analyzed.
(§3) The bioanalytical data were processed as individual concentration vs. time profiles using a non-compartmental analysis (NCA). Calculations were performed with the software Phoenix WinNonlin (version 8.3; Certara, USA). Tmax and Cmax were derived from observed values. AUCs were calculated using the Linear Up Log Down method. In addition, T1/2 was calculated using the best fit method and dose, time and sex effects were evaluated based on Cmax and AUClast ratios.

[6] = dog, in vivo
Experimental: as §2, §3

dogs [7] = conditions: field conditions; cited from earlier work
dogs [8] = system: dogs; design: method as in internal report; conditions: dogs maintained on concrete floors with corn cob bedding; ref internal report; cited from earlier work
[9] = system: leukocyte subsets (T, Th, Tc, B lymphocytes, monocytes); assay: Peripheral blood immunophenotyping by flow cytometry; assay type: in vivo, dog; conditions: either sex at any dose level
Text: Whole blood samples were also collected from the jugular vein for the evaluation of the leukocyte subsets and phenotypes on study days − 16 and − 8, and on study days 29, 57, 85, 113, 141, 169 and 183. The immunophenotype profiling by flow cytometry included total T lymphocytes (CD45 + CD5 + or CD5 + T cells), Helper T lymphocytes (CD45 + CD5 + CD4 + or CD4 + Th cells), Cytotoxic T lymphocytes (CD45 + CD5 + CD8 + or CD8 + Tc cells), B lymphocytes (CD45 + CD5- CD21 + or CD21 + B cells) and monocytes (CD45 + CD14+).
For immunophenotyping/peripheral blood leukocytes, a generalized linear mixed model for repeated measures analysis of variance (mixed model) was conducted. For each endpoint, the model tested for the effects of treatment, time, sex and all two and three-way interactions. The last available pre-treatment value was included in the model as a covariate. The evaluation proceeded as described for RMANCOVA.

[10] = males at 2X, 3X, and 5X and females at 5X, beginning study day 57, 85, or 113 through study day 183
[11] = 1X group (0.8 mg/kg/day, 6 months)
[12] = 2X group (1.6 mg/kg/day, 6 months)
[13] = 3X group (2.4 mg/kg/day, 6 months)
[14] = 5X group (4.0 mg/kg/day, 6 months)

N#CCC1(n2cc(-c3ncnc4[nH]ccc34)cn2)CN(S(=O)(=O)C2CC2)C1 [ilunocitinib]
increase in oral bioavailability when given with food or after feeding [1]: ~20% | red cell parameters (healthy Beagle dogs [2]; 1X group): stayed within the reference range | MCHC, effect compared to 0X (healthy Beagle dogs [2]; 2X (1.6 mg/kg/day)): minimally lower and ↓ | Hb (hemoglobin), effect compared to 0X (healthy Beagle dogs [2]; 2X (1.6 mg/kg/day)): minimally lowered and ↓ | Total Protein, effect compared to 0X (healthy Beagle dogs [2]; 2X (1.6 mg/kg/day)): ↑ | MCH, effect compared to 0X (healthy Beagle dogs [2]; 3X (2.4 mg/kg/day)): minimally lower and ↓ | MCHC, effect compared to 0X (healthy Beagle dogs [2]; 3X (2.4 mg/kg/day)): minimally lower and ↓ | HCT (hematocrit), effect compared to 0X (healthy Beagle dogs [2]; 3X (2.4 mg/kg/day)): ↓ | Hb (hemoglobin), effect compared to 0X (healthy Beagle dogs [2]; 3X (2.4 mg/kg/day)): minimally lowered and ↓ | RBC, effect compared to 0X (healthy Beagle dogs [2]; 3X (2.4 mg/kg/day)): ↓ | Total Protein, effect compared to 0X (healthy Beagle dogs [2]; 3X (2.4 mg/kg/day)): ↑ | Albumin, effect compared to 0X (healthy Beagle dogs [2]; 3X (2.4 mg/kg/day)): minimally lower and ↓ | Total Protein, effect compared to 0X (time by treatment interaction) (healthy Beagle dogs [2]; 3X (2.4 mg/kg/day), study day 113): minimally higher means and ↑ | Eosinophils, effect compared to 0X (healthy Beagle dogs [2]; 3X (2.4 mg/kg/day)): ↓ | Fibrinogen, effect compared to 0X (healthy Beagle dogs [2]; 3X (2.4 mg/kg/day)): marginally elevated concentrations and ↑ | MCH, effect compared to 0X (healthy Beagle dogs [2]; 5X (4.0 mg/kg/day)): minimally lower and ↓ | MCHC, effect compared to 0X (healthy Beagle dogs [2]; 5X (4.0 mg/kg/day)): minimally lower and ↓ | HCT (hematocrit), effect compared to 0X (healthy Beagle dogs [2]; 5X (4.0 mg/kg/day)): ↓ | Hb (hemoglobin), effect compared to 0X (healthy Beagle dogs [2]; 5X (4.0 mg/kg/day)): minimally lowered and ↓ | RBC, effect compared to 0X (healthy Beagle dogs [2]; 5X (4.0 mg/kg/day)): ↓ | Total Protein, effect compared to 0X (healthy Beagle dogs [2]; 5X (4.0 mg/kg/day)): ↑ | Albumin, effect compared to 0X (healthy Beagle dogs [2]; 5X (4.0 mg/kg/day)): minimally lower and ↓ | Eosinophils, effect compared to 0X (healthy Beagle dogs [2]; 5X (4.0 mg/kg/day)): ↓ | Fibrinogen, effect compared to 0X (healthy Beagle dogs [2]; 5X (4.0 mg/kg/day)): marginally elevated concentrations and ↑ | Total Protein, effect compared to 0X (time by treatment interaction) (healthy Beagle dogs [2]; 5X (4.0 mg/kg/day), study days 85,113,141): minimally higher means and ↑ | myeloid: erythroid ratios (healthy Beagle dogs [2]; Two dogs in the 5X group): minimally lower | effects on lymphocytes, monocytes, basophils and reticulocytes (healthy Beagle dogs [2]; all dose levels): no treatment-related effects | alkaline phosphatase, alanine aminotransferase, aspartate aminotransferase, triglycerides, plasma creatinine and urea levels or any other clinical chemistry parameters (healthy Beagle dogs [2]; all treatment groups, within normal ranges): No changes | effects on urinalysis endpoints (healthy Beagle dogs [2]; either sex at any dose level): no test article-related effects | C-reactive protein (CRP) levels (healthy Beagle dogs [2]; elevated doses, dogs with visible skin disease): higher | Total protein values in males vs control (healthy Beagle dogs [2]; males at 2X, 3X, and 5X): significantly (p = 0.0437) higher | Mean globulin concentrations vs control means (healthy Beagle dogs [2]; [10]): minimally higher | mean albumin/globulin ratios vs control means (healthy Beagle dogs [2]; [10]): minimally to mildly lower | prothrombin time and activated partial thromboplastin time (healthy Beagle dogs [2]; throughout the study, all dose levels): remained in the reference range | Prostate weight, prostate weight as a percent of body weight and ratio of prostate weight to brain weight vs controls (healthy Beagle dogs [3]): significantly decreased | Body weight gain [4, 11]: 0.06 ± 0.02 kg | mean body weight (± standard error) throughout the study [4, 11]: 10.30 ± 0.20 kg | body weight, treatment effect vs control ([4]; 1X, 3X and 5X groups, main effect of treatment p = 0.0026): statistically significant increases | Body weight gain [4, 12]: 0.03 ± 0.02 kg | mean body weight (± standard error) throughout the study [4, 12]: 9.76 ± 0.20 kg | body weight change, treatment effect vs control ([4]; 3X and 5X, main effect of treatment p = 0.0952): statistically significant increases | Body weight gain [4, 13]: 0.06 ± 0.02 kg | mean body weight (± standard error) throughout the study [4, 13]: 10.31 ± 0.20 kg | Body weight gain [4, 14]: 0.06 ± 0.02 kg | mean body weight (± standard error) throughout the study [4, 14]: 10.46 ± 0.20 kg | weekly averaged daily food consumption, treatment effect ([4]; all dose groups): statistically significant (p = 0.0872) time by treatment interaction | AUC ratio, study day 182 vs day 1 ([5]; group 2 (1X: 0.8 mg/kg)): 1.2 | AUC ratio, study day 182 vs day 1 ([5]; group 3 (2X: 1.6 mg/kg)): 1.4 | AUC ratio, study day 182 vs day 1 ([5]; group 4 (3X: 2.4 mg/kg)): 1.6 | AUC ratio, study day 182 vs day 1 ([5]; group 5 (5X: 4.0 mg/kg)): 1.2 | half-life [6]: approximately 3 h | increase of exposure with dose [6]: close to dose proportional | Weight gain in dogs under field conditions (dogs [7]): in very few cases | interdigital cysts (IDC) (dogs [8]): not observed | effects on leukocyte analysis (immunophenotyping) parameters [9]: no test article-related effects
